Columns and labels:
Assay in all cases: relative viability (nuclei count vs DMSO), 5 days (fraction); higher = more cells survive
AZD8055 + Foretinib = compound: COc1ccc(-c2ccc3c(N4CCOC[C@@H]4C)nc(N4CCOC[C@@H]4C)nc3n2)cc1CO [AZD8055] + COc1cc2c(Oc3ccc(NC(=O)C4(C(=O)Nc5ccc(F)cc5)CC4)cc3F)ccnc2cc1OCCCN1CCOCC1 [Foretinib] (partner 0.25 µM)
In short: (§1)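 For relative viability, nuclei counts in treated wells were divided by those in vehicle wells. Lung cancer cell lines had been pin-tool dosed in 1536-well plates the day after seeding and cultured for 5 days, then fixed and stained in one step (final 0.05% Triton X-100, 1% formaldehyde, 1 ug/ml Hoechst) and imaged at 4×. Doses were one drug alone or a fixed anchor-drug dose plus five library-drug doses (not always all listed) in √10 steps, and values are duplicate-plate medians.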

AZD8055 + Alpelisib = compound: COc1ccc(-c2ccc3c(N4CCOC[C@@H]4C)nc(N4CCOC[C@@H]4C)nc3n2)cc1CO [AZD8055] + Cc1nc(NC(=O)N2CCC[C@H]2C(N)=O)sc1-c1ccnc(C(C)(C)C(F)(F)F)c1 [Alpelisib] (partner 2 µM)
In short: as §1

AZD8055 + Pemetrexed = compound: COc1ccc(-c2ccc3c(N4CCOC[C@@H]4C)nc(N4CCOC[C@@H]4C)nc3n2)cc1CO [AZD8055] + Nc1nc2[nH]cc(CCc3ccc(C(=O)N[C@@H](CCC(=O)O)C(=O)O)cc3)c2c(=O)[nH]1 [Pemetrexed] (partner 0.2 µM)
In short: as §1

AZD8055 + Olaparib = compound: COc1ccc(-c2ccc3c(N4CCOC[C@@H]4C)nc(N4CCOC[C@@H]4C)nc3n2)cc1CO [AZD8055] + O=C(c1cc(Cc2n[nH]c(=O)c3ccccc23)ccc1F)N1CCN(C(=O)C2CC2)CC1 [Olaparib] (partner 8 µM)
In short: as §1

Cell Line	relative viability (AZD8055 + Foretinib; first compound 0.01 µM)	relative viability (AZD8055 + Foretinib; first compound 0.03162 µM)	relative viability (AZD8055 + Foretinib; first compound 0.1 µM)	relative viability (AZD8055 + Foretinib; first compound 0.3162 µM)	relative viability (AZD8055 + Foretinib; first compound 1 µM)	relative viability (AZD8055 + Alpelisib; first compound 0.01 µM)	relative viability (AZD8055 + Alpelisib; first compound 0.03162 µM)	relative viability (AZD8055 + Alpelisib; first compound 0.1 µM)	relative viability (AZD8055 + Alpelisib; first compound 0.3162 µM)	relative viability (AZD8055 + Alpelisib; first compound 1 µM)	relative viability (AZD8055 + Pemetrexed; first compound 0.01 µM)	relative viability (AZD8055 + Pemetrexed; first compound 0.03162 µM)	relative viability (AZD8055 + Pemetrexed; first compound 0.1 µM)	relative viability (AZD8055 + Pemetrexed; first compound 0.3162 µM)	relative viability (AZD8055 + Pemetrexed; first compound 1 µM)	relative viability (AZD8055 + Olaparib; first compound 0.01 µM)	relative viability (AZD8055 + Olaparib; first compound 0.03162 µM)	relative viability (AZD8055 + Olaparib; first compound 0.1 µM)	relative viability (AZD8055 + Olaparib; first compound 0.3162 µM)	relative viability (AZD8055 + Olaparib; first compound 1 µM)
NCI-H1755	0.885	0.788	0.698	0.485	0.373	0.879	0.744	0.607	0.378	0.363	0.462	0.423	0.384	0.424	0.461	0.767	0.765	0.677	0.446	0.378
NCI-H2087	1.04	0.857	0.676	0.461	0.315	0.996	0.924	0.809	0.44	0.381	0.646	0.587	0.588	0.427	0.292	0.625	0.519	0.451	0.263	0.217
NCI-H2228	0.739	0.54	0.385	0.166	0.241	0.621	0.297	0.222	0.19	0.272	0.41	0.345	0.233	0.171	0.171	0.763	0.432	0.217	0.187	0.228
NCI-H727	0.713	0.89	0.717	0.307	0.394	0.564	0.435	0.356	0.255	0.269	–	–	–	–	–	0.818	0.812	0.744	0.603	0.52
NCI-H650	1.12	0.995	0.773	0.541	0.368	0.968	0.834	0.695	0.385	0.385	0.981	0.691	0.843	0.371	0.299	0.484	0.38	0.357	0.217	0.175
NCI-H520	0.635	0.344	0.35	0.173	0.172	0.912	0.659	0.4	0.187	0.18	0.636	0.307	0.245	0.182	0.144	0.247	0.205	0.132	0.137	0.132
EBC-1	0.102	0.126	0.116	0.114	0.127	0.827	0.421	0.373	0.265	0.259	–	–	–	–	–	0.764	0.51	0.331	0.227	0.172
NCI-H661	1.06	0.99	0.795	0.5	0.425	0.801	0.411	0.399	0.397	0.275	1.02	0.882	0.868	0.579	0.418	0.785	0.802	0.691	0.447	0.378
NCI-H1299	1.19	1.18	1.14	0.863	0.528	1.17	1.04	1.06	0.628	0.468	–	–	–	–	–	1.06	1.03	0.889	0.574	0.353
LK-2	0.938	0.938	0.648	0.292	0.142	1.03	0.658	0.447	0.331	0.265	0.234	0.185	0.138	0.137	0.11	0.769	0.436	0.379	0.144	0.171
NCI-H1648	–	–	–	–	–	–	–	–	–	–	0.942	0.675	0.641	0.324	0.285	0.658	0.739	0.561	0.239	0.287
NCI-H1650	0.998	1.02	0.886	0.778	0.449	–	–	–	–	–	0.403	0.463	0.389	0.39	0.29	0.985	0.865	0.726	0.417	0.472
SW 900	1.03	0.86	0.647	0.654	0.409	–	–	–	–	–	0.493	0.469	0.512	0.353	0.241	0.812	0.952	0.719	0.48	0.502
IA-LM	0.933	0.659	0.567	0.169	0.126	0.749	0.485	0.212	0.0977	0.0895	–	–	–	–	–	0.8	0.823	0.551	0.302	0.114
NCI-H1563	0.913	0.723	0.725	0.635	0.645	0.82	0.61	0.603	0.51	0.673	0.735	0.577	0.602	0.563	0.471	–	–	–	–	–
HCC-44	–	–	–	–	–	0.573	0.507	0.417	0.271	0.295	0.65	0.702	0.665	0.655	0.673	1.03	1.04	0.957	0.847	0.861
ABC-1	1.2	0.909	0.997	0.701	0.324	0.897	0.847	0.65	0.404	0.515	–	–	–	–	–	1.3	1.37	0.992	0.717	0.907
NCI-H522	–	–	–	–	–	–	–	–	–	–	0.992	0.943	0.962	0.518	0.467	0.603	0.686	0.543	0.387	0.385
NCI-H1792	–	–	–	–	–	0.447	0.482	0.361	0.131	0.108	0.764	0.343	0.193	0.108	0.108	0.503	0.379	0.0968	0.0717	0.108
